Measured values reported in patent US8691528B2, “Cell penetrating peptide” (Mitsubishi Tanabe Pharma Corporation, priority 2005, dated 2014).
Entries after “also recorded” stand apart in the source; their conditions may differ.

Test system: CHO cells
Assay: Test of translocation of fluorescence-labeled peptides into CHO cells (FACS and confocal microscopic analysis)
Format: cell-based
Settings: for contribution of the alanine-substituted amino acid to the intracellular translocation: comprehensive alanine substitution on the basis of KSH1-1
Protocol: Each peptide solution, adjusted to 1 mM, was diluted with a medium to three levels, 100 μM, 50 μM, and 25 μM, and added to cells. Three kinds of cells were used: CHO cells, HeLa cells, and Jurkat cells. After each peptide solution was added, the cells were incubated for 1 hour. After the cells were washed with PBS three times, 100 μL of 0.25% trypsin-1 mM EDTA solution was added, and trypsinization was performed at room temperature for 5 minutes. After 400 μL of PBS (10% FCS) was added to stop the trypsinization, the cells were washed with 1 mL of HBSS three times. After the washing, the cells were suspended in 500 μL of PBS (10% FCS) and subjected to flowcytometry (hereinafter, FACS) analysis using FACS Calibur (Becton Dickinson).
Each peptide was synthesized, fluorescently labeled, purified and dissolved in the same manner as Example 1-2, a test of translocation into CHO cells was performed, and an evaluation was performed by confocal microscopic analysis and FACS. FACS analysis was performed in the same manner as Example 1-3. For the KSH1 peptide and modified PTD sequences, i.e., KSH1-1 to KSH1-9 peptides (SEQ ID NOS:1 to 9 in the sequence listing), fluorescence intensities determined by FACS analysis are shown in FIG. 6. The peptide addition concentrations were 50 μM, 25 μM, 12.5 μM and 6.5 μM.
To determine which amino acids are important to the intracellular translocation, comprehensive alanine substitution was performed on the basis of KSH1-1 to design KSH1-11 (SEQ ID NO:11 in the sequence listing) to KSH1-23 (SEQ ID NO:22 in the sequence listing) and KSH1-35 (SEQ ID NO:32 in the sequence listing) (FIG. 7). Each peptide was synthesized, fluorescently labeled, purified and dissolved in the same manner as Example 1-2, a test of translocation into CHO cells was performed, and an evaluation was performed by confocal microscopic analysis and FACS. FACS analysis was performed in the same manner as Example 1-3. For KSH1 and modified PTD sequences, i.e., KSH11-11 to 23 and KSH1-35, fluorescence intensities determined by FACS analysis are shown in FIG. 8. The peptide addition concentrations were 50 μM, 25 μM, 12.5 μM and 6.5 μM.
(§1) Each peptide was synthesized, fluorescently labeled, purified and dissolved in the same manner as Example 1-2, a test of translocation into CHO cells was performed, and an evaluation was performed by confocal microscopic analysis and FACS analysis. FACS analysis was performed in the same manner as Example 1-3. For KSH1 and modified PTD sequences, i.e., KSH11-24 to 1-26 and KSH1-28 to 1-30, fluorescence intensities determined by FACS analysis are shown in FIG. 10. The peptide addition concentrations were 50 μM, 25 μM, 12.5 μM and 6.5 μM.
as §1, with “KSH1-27, KSH1-33, KSH1-34” for “KSH11-24 to 1-26”, “KSH1-36,” for “KSH1-28 to 1-30,”, “12.” for “10.”
Each peptide was synthesized, fluorescently labeled, purified and dissolved in the same manner as Example 1-2, and an intracellular translocation test in CHO cells was performed by FACS analysis. Used for positive control were a PTD sequence derived from HIV TAT ([…] in the sequence listing) and the KSH1 peptide; used for negative control was a peptide sequence lacking intracellular transferability (SEQ ID NO:57 in the sequence listing).

[1] = 50 μM, 25 μM, 12.5 μM and 6.5 μM

KSH1-2: KSH1 with proline substituted with alanine (KLWMRWYSATTRRYG; Designed peptide to act as PTD(Protein Transduction Domain))
intracellular translocation compared with KSH1 (in words) [1]: no influence on the intracellular transferability was observed

KSH1-3: KSH1 with the 13th arginine substituted with alanine (KLWMRWYSPTTRAYG; Designed peptide to act as PTD(Protein Transduction Domain))
intracellular translocation compared with KSH1 (in words) [1]: decreased remarkably; also recorded: became observable very little | concentration at which intracellular translocation was detected (detected only at this concentration): 50 µM

KSH1-4: modified KSH1 with three tryptophans uniformly arranged on the wheel structure (KLWMRWWSPTTRRYG; Designed peptide to act as PTD(Protein Transduction Domain))
intracellular translocation compared with KSH1 (in words) [1]: did not change

KSH1-6: KSH1 with the two tryptophans both substituted with alanine (KLAMRAYSPTTRRYG; Designed peptide to act as PTD(Protein Transduction Domain))
intracellular translocation compared with KSH1 (in words) [1]: no longer observable at all

KSH1-11: KSH1-1 with the 1st arginine substituted with alanine (ALWMRWYSPTTRRYG; Designed peptide to act as PTD(Protein Transduction Domain))
intracellular translocation compared with KSH1-1 (in words) [1]: did not decrease a lot | contribution of the alanine-substituted amino acid to the intracellular translocation: minor contribution

KSH1-15: alanine substitution form of KSH1-1 (an arginine substituted) (RLWMAWYSPTTRRYG; Designed peptide to act as PTD(Protein Transduction Domain))
intracellular translocation compared with KSH1-1 (in words) [1]: decreased

KSH1-17: KSH1-1 with the 7th tyrosine substituted with alanine (RLWMRWASPTTRRYG; Designed peptide to act as PTD(Protein Transduction Domain))
intracellular translocation compared with KSH1-1 (in words) [1]: almost no intracellular translocation was observed

KSH1-19: alanine substitution form of KSH1-1 (RLWMRWYSGTTRRYG; Designed peptide to act as PTD(Protein Transduction Domain))
contribution of the alanine-substituted amino acid to the intracellular translocation: minor contribution

KSH1-22: alanine substitution form of KSH1-1 (an arginine substituted) (RLWMRWYSPTTARYG; Designed peptide to act as PTD(Protein Transduction Domain))
intracellular translocation compared with KSH1-1 (in words) [1]: decreased

KSH1-23: alanine substitution form of KSH1-1 (RLWMRWYSPTTRRAG; Designed peptide to act as PTD(Protein Transduction Domain))
contribution of the alanine-substituted amino acid to the intracellular translocation: minor contribution

KSH1-24: two tryptophans substituted with leucine (RLLMRLYSPTTRRYG; Designed peptide to act as PTD(Protein Transduction Domain))
intracellular translocation compared with KSH1-1 (in words) [1]: decreased

KSH1-25: two tryptophans substituted with phenylalanine (RLFMRFYSPTTRRYG; Designed peptide to act as PTD(Protein Transduction Domain))
intracellular translocation compared with KSH1-1 (in words) [1]: nearly the same as KSH1-1

KSH1-26: two tryptophans substituted with isoleucine (RLIMRIYSPTTRRYG; Designed peptide to act as PTD(Protein Transduction Domain))
intracellular translocation compared with KSH1-1 (in words) [1]: nearly the same as KSH1-1

KSH1-27: serine and threonine all substituted with alanine (RLWMRWYAPAARRYG; Designed peptide to act as PTD(Protein Transduction Domain))
intracellular translocation compared with KSH1-1 (in words) [1]: decreased slightly | translocation compared with KSH1-1 (in words) (at low concentrations): nearly the same

KSH1-29: two tryptophans substituted with valine (RLVMRVYSPTTRRYG; Designed peptide to act as PTD(Protein Transduction Domain))
intracellular translocation compared with KSH1-1 (in words) [1]: decreased slightly

KSH1-30: two tryptophans substituted with tyrosine (RLYMRYYSPTTRRYG; Designed peptide to act as PTD(Protein Transduction Domain))
intracellular translocation compared with KSH1-1 (in words) [1]: good intracellular translocation was exhibited; also recorded: good results

KSH1-34: 14th tyrosine in the vicinity of the 3rd tryptophan substituted with arginine (RLWMRWYSPTTRARG; Designed peptide to act as PTD(Protein Transduction Domain))
intracellular translocation compared with KSH1-1 (in words) [1]: decreased considerably

KSH1-35: alanine substitution form of KSH1-1 (RLWMRWYSPTTRRYA; Designed peptide to act as PTD(Protein Transduction Domain))
contribution of the alanine-substituted amino acid to the intracellular translocation: minor contribution

KSH1-36: the reversed-chain peptide of KSH1 (GYRRTTPSYWRMWLR; Designed peptide to act as PTD(Protein Transduction Domain))
intracellular translocation compared with KSH1 (in words) (at high concentrations): accentuated intracellular translocation | intracellular translocation compared with KSH1 (in words) (at low concentrations): tended to decrease
